The record followed here is patent publication US11958880B2, “Means and methods for site-specific functionalization of polypeptides” (LUDWIG-MAXIMILIANS-UNIVERSITÄT MÜNCHEN, priority 2014, dated 2024).

SMILES strings stand for the structures.

Holding throughout (assay type): biochemical
Assay [1] has as its target T1, tubulin tyrosine ligase (TTL) (Canis lupus familiaris, UniProt A0A8I3N5B1).
T1 construct: His-Tag (N); SUMO3 (Sumo) (N); made in house; host or cells: E. coli BL21(DE3)
T1 sequence (A0A8I3N5B1 1-377): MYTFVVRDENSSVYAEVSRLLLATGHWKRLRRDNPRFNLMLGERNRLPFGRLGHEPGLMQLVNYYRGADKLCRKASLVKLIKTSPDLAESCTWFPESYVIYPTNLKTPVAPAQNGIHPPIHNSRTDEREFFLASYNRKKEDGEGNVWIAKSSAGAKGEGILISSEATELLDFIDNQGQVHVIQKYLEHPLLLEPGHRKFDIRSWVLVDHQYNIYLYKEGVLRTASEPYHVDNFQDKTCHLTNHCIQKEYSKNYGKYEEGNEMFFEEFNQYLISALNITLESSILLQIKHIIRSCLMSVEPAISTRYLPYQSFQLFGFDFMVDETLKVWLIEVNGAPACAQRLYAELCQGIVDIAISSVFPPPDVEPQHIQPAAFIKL
Description: TTL tyrosination of carboxyfluorescein-labeled Tub-tag peptide (CF-Tub-tag), isocratic HPLC-fluorescence. The note with it: TTL:peptide 1:200, after 120 min of incubation at 37° C. The procedure: Tyrosination reactions were performed in a 250 μL solution consisting of 20 mM MES/K pH 7.0, 100 mM KCl, 10 mM MgCl2, 2.5 mM ATP, 1 mM tyrosine derivative, 0.2 mM peptide, 1 μM TTL and 5 mM DTT in case of compound 1, 2, 4 and 5 or 5 mM reduced glutathione in case of compound 3, respectively. The mixture was incubated at 37° C. and several aliquots (25 μL) were taken within 24 h, mixed with equal volumes of H2O+0.1% TFA and subjected either to isocratic analytical HPLC equipped with a fluorescence detector (Method A) or analytical UPLC-MS analysis. Quantities of substrate and product peptides were estimated from the corresponding peak-area in the fluorescence or UV detection spectrum (Ex/Em: 495/517).
Tyrosination reactions were performed in a 250 μL solution consisting of 20 mM MES/K pH 7.0, 100 mM KCl, 10 mM MgCl2, 2.5 mM ATP, 1 mM tyrosine derivative, 0.2 mM CF-Tub-tag 13, 1 μM TTL and 5 mM DTT in case of compound 2 or 5 mM reduced glutathione in case of compound 1, respectively. The mixture was incubated at 37° C. and several aliquots (25 μL) were taken, mixed with equal volumes of H2O+0.1% TFA and subjected to isocratic analytical HPLC equipped with a fluorescence detector (Method: A=H2O+0.1% TFA, B=MeCN+0.1% TFA; 35% B, 0-15 min, 10-100% B 15-17 min, 100% B 17-22 min, 100-35% B 22-25 min and 35% B 25-30 min.). […]

In assay [2] the target is T1, tubulin tyrosine ligase (TTL). Description: TTL reaction on GBP4 followed by tryptic digest and HPLC-MS/MS. The note with it: 1 mM tyrosine derivative, 1 μM TTL, 5 μM nanobody, 37° C., 24 h. The procedure:
Nanobodies were tyrosinated as described in Example 8. Proteins were separated by SDS-PAGE. Protein bands of interest were excised, soaked with 100 μL 50 mM (NH4)2CO3/ACN 1:1 and incubated at 30° C. for 10 min. The supernatant was removed and the gel pieces were incubated in 50 mM (NH4)2CO3 at 30° C. for further 10 min. The two incubation steps were repeated until the pieces were colorless. Hereafter, the gel pieces were dehydrated by the addition of 25 μL ACN, the supernatant removed and the gels were dried under reduced pressure. In-gel digest was performed in a total volume of 20 μL 50 mM (NH4)2CO3 at 37° C. for 12 h using 0.05 μg Trypsin. 20 μL ACN+0.5% TFA were added, the mixture was incubated in an ultrasonic bath, the supernatant transferred to LC glass vials, the solvent was removed under reduced pressure and the residual peptides resuspended in 6 μL 95% H2O+0.1% TFA, 5% ACN+0.1% TFA solution. Peptides were separated by HPLC and analysed by MSMS experiments.
Tyrosination reactions were performed in a 50 μL solution consisting of 20 mM MES/K pH 7.0, 100 mM KCl, 10 mM MgCl2, 2.5 mM ATP, 1 mM tyrosine derivative, 1 μM TTL, 5 μM nanobody and 5 mM reduced glutathione in case of compound 3 and 5 mM DTT in case of compound 1, 2, 9 and tyrosine (6), respectively. The mixture was incubated at 37° C. for 24 h. Proteins were separated by SDS-PAGE. Protein bands of interest were excised, soaked with 100 μL 50 mM (NH4)2CO3/ACN 1:1 and incubated at 30° C. for 10 min. The supernatant was removed and the gel pieces were incubated in 50 mM (NH4)2CO3 at 30° C. for further 10 min. The two incubation steps were repeated until the pieces were colourless. Hereafter, the gel pieces were dehydrated by the addition of 25 μL ACN, the supernatant removed and the gels were dried under reduced pressure. In-gel digest was performed in a total volume of 20 μL 50 mM (NH4)2CO3 at 37° C. for 12 h using 0.05 μg trypsin (Thermo Fisher Scientific, USA). 20 μL ACN+0.5% TFA was added, the mixture incubated in an ultrasonic bath, the supernatant transferred to LC glass vials, the solvent removed under reduced pressure and the residual peptides resuspended in 6 μL 95% H2O+0.1% TFA, 5% ACN+0.1% TFA solution. Peptides were separated by HPLC and analyzed by MSMS experiments.

The target is the same in assay [3]. The experiment in a line: TTL-mediated incorporation of tyrosine derivative to the C-terminus of GBP4 followed by SPAAC to DBCO-biotin (SDS-PAGE/western blot). The note with it: for GBP4 converted (C-terminally modified GBP4): one hour; for GBP4 conversion: three hours. The procedure:
Tyrosination reactions were performed in a 150 μL solution consisting of 20 mM MES/K pH 7.0, 100 mM KCl, 10 mM MgCl2, 2.5 mM ATP, 1 mM tyrosine derivative, 0.1-1 μM TTL, 5 μM nanobody and 5 mM reduced glutathione in case of compounds containing azides or 5 mM DTT for all other derivatives, respectively. The mixture was incubated at 37° C. for 1-3 h.
Tyrosination reactions were performed as described in Example 16 using compound 3, 5 mM reduced glutathione and a ratio of 10:1 GBP4/TTL for 3 h. The reaction mixtures were rebuffered to Dulbecco's PBS pH 7.4 and incubated with 30 eq. of Sulfo-Cy5-DBCO (Jena Bioscience GmbH, Germany) or DBCO-PEG4-biotin (Jena Bioscience GmbH, Germany) at 30° C. for 4 h. Proteins were separated by SDS-PAGE. Biotinylated nanobodies were wet blotted onto a nitrocellulose membrane using a Bio-Rad Mini-Protean Tetra System (250 mA, one hour). A streptavidin peroxidase conjugate (Merck Millipore, Germany) was used for detection. Fluorescently labeled nanobodies were visualized by a Fuji FLA-5000 laser imager (634 nm excitation, LPG-filter) (Fujifilm, Japan).
(In general: A western blot detects proteins with antibodies after separation by electrophoresis.)

In assay [1], `N[C@@H](Cc1ccc(O)c(C=O)c1)C(=O)O` [compound 1, 3-formyl-L-tyrosine] displayed a conjugate yield of 63%. In addition, in assay [2], the “C-terminal addition to GBP4 shown by HPLC-MS/MS” value (“C-terminal addition” for short) is “successful C-terminal addition”.
In the case of `Nc1cc(C[C@H](N)C(=O)O)ccc1O` [compound 9, 3-amino-L-tyrosine], the “C-terminal addition” value in assay [2] is on record as “successful C-terminal addition”.
`[N-]=[N+]=Nc1cc(C[C@H](N)C(=O)O)ccc1O` [compound 3, 3-azido-L-tyrosine] yielded a conjugate yield in assay [1] of 80%. In addition, the “C-terminal addition” value in assay [2] is recorded as “successful C-terminal addition”. The “GBP4 converted (C-terminally modified GBP4)” value in assay [3] (ratio 1:5 TTL/GBP4, 37° C.) stood at 82%; in assay [3] (ratio 1:10 TTL/GBP4, 37° C.) it was 71%. In addition, the GBP4 conversion in assay [3] (ratio 1:5 TTL/GBP4, 37° C.) came to 99%; in assay [3] (ratio 1:10 TTL/GBP4, 37° C.), 88%.
Regarding `N[C@@H](Cc1ccc(O)c([N+](=O)[O-])c1)C(=O)O` [compound 2, 3-nitro-L-tyrosine], the “C-terminal addition” value in assay [2] is reported as “successful C-terminal addition”.
Same read-out and setting: under `N[C@@H](Cc1ccc(O)cc1)C(=O)O` [compound 6, L-tyrosine, reference compound] stands “successful C-terminal addition”.
